Measured values reported in patent US4769235A, “Immunodominant epitope of the circumsporozoite surface protein” (New York University, priority 1984, dated 1988).
Entries after “also recorded” stand apart in the source; their conditions may differ. No end group written: not given here.

Assays:
[1] = test system: monoclonal anti-CS / CS protein of P. knowlesi; assay: Reactivity of synthetic peptides with monoclonal anti-CS (antibody not specified); assay type: binding; settings: antibody not given; compared with (1-12) or (5-12) where stated
Procedure: Four monoclonal antibodies (2G3, 5H8, 8B8, and 8E11) were used in immunoactivity testing of synthesized shorter length analogs of the 12-peptide. The purpose was further localization and identification of the epitope contained therein.
After synthesis, cleavage and purification, the peptides were tested for reactivity with monoclonal anti-CS, preferably partially purified. The anti-CS used in these tests were produced by ascites tumor induction using hybridoma cells resulting from the fusion of plasmacytoma cells with spleen cells of a mouse immunized with the parasite, as described by Cochrane, A. H. et al, supra, and as disclosed in the Malaria Vaccine patent application.
The immunoactivity of the synthetic peptides was evaluated by measuring their ability to inhibit the reaction between the monoclonal anti-CS and the antigen (CS protein). […]
Competitive inhibition of the antigen-antibody reaction by the thus synthesized peptides was measured by the following radioimmunoassay. […]
(§1) All synthetic peptides were dissolved in PBS at a concentration of 10 mM and subsequently diluted serially in PBS-1% BSA/0.1% NaN3. […] The microtiter plates were incubated at 4° C. for 18 hours, washed 5 times with PBS-BSA-NaN3 and then the wells were counted for well-bound antibody. […]

[2] = test system: binding of monoclonal antibody 2G3 to the CS protein P. knowlesi; assay: Inhibition radioimmunoassay: binding of 125I-labelled monoclonal antibody 2G3 to P. knowlesi CS protein; settings: for Inhibitory activity on binding of monoclonal antibody 2G3 to CS protein (in words): FIGS. 1, 2 / Table 3
Procedure: (§2) The immunoactivity of the synthetic peptides was evaluated by measuring their ability to inhibit the reaction between the monoclonal anti-CS and the antigen (CS protein). Antigen was purified from sporozoites, as disclosed in the Malaria Vaccine patent application and as also described by Vanderberg, supra, and Zavala, F., et al, supra, 1982, is preferably employed using ^125 I-labeled antibody.
(§3) Competitive inhibition of the antigen-antibody reaction by the thus synthesized peptides was measured by the following radioimmunoassay. P. knowlesi sporozoite CS protein was used as the antigen.
(§4) (a) Preparation of antigen: 3,000 purified P. knowlesi sporozoites (Vanderberg et al., Military Medicine 134:1183, 1969) in 50 μl of phosphate buffered saline (PBS) containing protease inhibitors, were delivered to the bottom of polystyrene (Falcon 3911 plate, B-D and Co., Oxnard, Calif.) microtiter plates, which were sealed with parafilm and frozen at -70° C. for at least ten minutes. The plates were then allowed to defrost slowly at room temperature. This procedure was repeated six times. Then the plates were incubated at 4° C. overnight, and at 56° C. for five minutes. The P. knowlesi extract was then removed from the wells and these were washed three times with PBS containing 1% bovine serum albumin (BSA) and 0.1% NaN3. The wells were then filled with PBS-BSA-NaN3 for a few hours at room temperature.
(§5) All synthetic peptides were dissolved in PBS at a concentration of 10 mM and subsequently diluted serially in PBS-1% BSA/0.1% NaN3. Twenty-five μl of serial dilutions of each peptide were added to the wells coated with antigen. Control wells received only the diluent. Then, 25 μl of the ^125 I-labelled monoclonal antibody (about 5-10ng, 10 ^5 cpm) were added to the wells. The microtiter plates were incubated at 4° C. for 18 hours, washed 5 times with PBS-BSA-NaN3 and then the wells were counted for well-bound antibody. (LKB 1260 Muilti-gamma γ-counter LKB Instruments, Inc., Gaithersburg, Md.). […]

[3] = test system: monoclonal antibody 8B8 against the surface protein of P. knowlesi; assay: Binding of 125I-labelled tetraeicosapeptide to Sepharose beads bearing monoclonal antibody 8B8; set-up: species or system mouse
Text: (§6) Monoclonal antibodies against surface antigens of sporozoites of the simian malaria parasite Plasmodium knowlesi were produced by fusion of plasmacytoma cells with spleen cells of a mouse immunized witn the parasite as previously described by Cochrane et al., supra., (1982) and described in detail in the Malaria Vaccine patent application. The monoclonal antibodies (four idiotypes: 2G3, 8B8, 5H8 and 8E11 were partially purified from ascites of mice bearing hybridomas by 50% ammonium sulphate precipitation followed by molecular sieve chromatography on Sephadex G-200.
(§7) To determine whether the 24-peptide is recognized by all monoclonal antibodies, 5 mg of purified monoclonal antibodies were bound to 1 ml of CNBr activated Sepharose 4B (Pharmacia Fine Chemicals, Piscataway, N.J., U.S.A.) according to instructions of the manufacturer. The 24 amino acid peptide was radiolabelled with ^125 I with the Boulton-Hunter reagent, to a specific activity of approximately 10^4 cpm/μg. Twenty μl of beads bearing the different antibodies were incubated for 60 minutes at room temperature in the presence of 100 μl of PBS-BSA containing either 1 μg of the radiolabelled peptide alone or radiolabelled peptide in the presence of […] of cold tetraeicosapeptide. The beads were then washed by centrifugation with PBS-BSA and counted in a gamma-counter.

monoclonal antibody 6B8 = assay: Binding of 125I-labelled tetraeicosapeptide to Sepharose beads bearing monoclonal antibody 6B8; set-up: species or system mouse; settings: other experiments, not shown
Text: as §6, §7

[4] = test system: monoclonal antibody 5H8 against the surface protein of P. knowlesi; assay: Binding of 125I-labelled tetraeicosapeptide to Sepharose beads bearing monoclonal antibody 5H8; set-up: species or system mouse
Text: as §6, §7

[5] = test system: binding of radiolabelled 8E11 to the CS protein of P. knowlesi; assay: Inhibition radioimmunoassay: binding of radiolabelled monoclonal antibody 8E11 to P. knowlesi CS protein
Procedure: as §2, §3, §4, §5

[6] = test system: binding of monoclonal antibody 2G3 to the CS protein P. knowlesi; settings: cited from earlier work
[7] = test system: monoclonal antibody (3D11) against the surface protein of P. berghei; assay: Binding of 125I-labelled tetraeicosapeptide to control beads bearing monoclonal antibody 3D11
Procedure: as §7

monoclonal antibody 8E11 = assay: Binding of 125I-labelled tetraeicosapeptide to Sepharose beads bearing monoclonal antibody 8E11; set-up: species or system mouse; settings: other experiments, not shown
Text: as §6, §7

[8] = test system: monoclonal antibody 2G3 against the surface protein of P. knowlesi; assay: Binding of 125I-labelled tetraeicosapeptide to Sepharose beads bearing monoclonal antibody 2G3; set-up: species or system mouse
Text: as §6, §7

[9] = test system: monoclonal antibody 8A8 against the surface protein of P. knowlesi; assay: Binding of 125I-labelled tetraeicosapeptide to Sepharose beads bearing monoclonal antibody 8A8; set-up: species or system mouse
[10] = test system: binding of monoclonal antibody 5H8 to the CS protein P. knowlesi; assay: Inhibition radioimmunoassay: binding of 125I-labelled monoclonal antibody 5H8 to P. knowlesi CS protein; settings: summary of FIGS. 1, 3 / Table 3
Procedure: as §2, §3
(§8) (a) Preparation of antigen: 3,000 purified P. knowlesi sporozoites (Vanderberg et al., Military Medicine 134:1183, 1969) in 50 μl of phosphate buffered saline (PBS) containing protease inhibitors, were delivered to the bottom of polystyrene (Falcon 3911 plate, B-D and Co., Oxnard, Calif.) microtiter plates, which were sealed with parafilm and frozen at -70° C. for at least ten minutes. The plates were then allowed to defrost slowly at room temperature. This procedure was repeated six times. […]
as §1

[11] = test system: binding of monoclonal antibody 8B8 to the CS protein P. knowlesi; assay: Inhibition radioimmunoassay: binding of 125I-labelled monoclonal antibody 8B8 to P. knowlesi CS protein; settings: text summary of FIG. 4 / Table 3
Procedure: as §2, §3, §8, §1

[12] = 8B8 beads in PBS-BSA + excess of cold tetraeicosapeptide
[13] = 5H8 beads in PBS-BSA + excess of cold tetraeicosapeptide
[14] = control 3D11 beads suspended in PBS-BSA
[15] = 2G3 beads in PBS-BSA + excess of cold tetraeicosapeptide
[16] = 8A8 beads in PBS-BSA + excess of cold tetraeicosapeptide

H-QAQGDGANAGQPQAQGDGANAGQP-NH2 [Peptide 1-24]
Reactivity with monoclonal anti-CS (in words) [1]: reacted | Inhibitory activity on binding of monoclonal antibody 2G3 to CS protein (in words) [2]: almost identical | % of input of radiolabelled tetraeicosa peptide that bound to the beads [3, 12]: 0.2 % of input | cpm of radiolabelled tetraeicosa peptide that bound to the beads [3, 12]: 20 cpm | % of input of radiolabelled tetraeicosa peptide that bound to the beads ([3]; 8B8 beads suspended in PBS-BSA): 27.8 % of input | cpm of radiolabelled tetraeicosa peptide that bound to the beads ([3]; 8B8 beads suspended in PBS-BSA): 3155 cpm | Binding of radiolabelled (1-24) to beads bearing 6B8 (in words) (monoclonal antibody 6B8): Analogous results | % of input of radiolabelled tetraeicosa peptide that bound to the beads [4, 13]: 0.2 % of input | cpm of radiolabelled tetraeicosa peptide that bound to the beads [4, 13]: 20 cpm | % of input of radiolabelled tetraeicosa peptide that bound to the beads ([4]; 5H8 beads suspended in PBS-BSA): 19.7 % of input | cpm of radiolabelled tetraeicosa peptide that bound to the beads ([4]; 5H8 beads suspended in PBS-BSA): 2332 cpm | Inhibition of binding of antibody 8E11 to CS protein (in words) [5]: inhibited | IC50 ([5]; FIG. 1, read-out: Concentration giving about 50% inhibition of binding of radiolabelled 8E11 to the CS protein): ~10 µM | Reactivity with monoclonal anti-CS 2G3 (previous work) [6]: interacted simultaneously with two molecules of 2G3 | cpm of radiolabelled tetraeicosa peptide that bound to the beads ([7]; control 3D11 beads in PBS-BSA + excess of cold tetraeicosapeptide): 0 cpm | % of input of radiolabelled tetraeicosa peptide that bound to the beads [7, 14]: 0.2 % of input | cpm of radiolabelled tetraeicosa peptide that bound to the beads [7, 14]: 25 cpm | Binding of radiolabelled (1-24) to beads bearing 8E11 (in words) (monoclonal antibody 8E11): Analogous results | % of input of radiolabelled tetraeicosa peptide that bound to the beads [8, 15]: 0.2 % of input | cpm of radiolabelled tetraeicosa peptide that bound to the beads [8, 15]: 25 cpm | % of input of radiolabelled tetraeicosa peptide that bound to the beads ([8]; 2G3 beads suspended in PBS-BSA): 25.8 % of input | cpm of radiolabelled tetraeicosa peptide that bound to the beads ([8]; 2G3 beads suspended in PBS-BSA, 1 μg radiolabelled peptide): 2922 cpm | % of input of radiolabelled tetraeicosa peptide that bound to the beads [9, 16]: 0.2 % of input | cpm of radiolabelled tetraeicosa peptide that bound to the beads [9, 16]: 25 cpm | % of input of radiolabelled tetraeicosa peptide that bound to the beads ([9]; 8A8 beads suspended in PBS-BSA): 10.3 % of input | cpm of radiolabelled tetraeicosa peptide that bound to the beads ([9]; 8A8 beads suspended in PBS-BSA): 1092 cpm | Inhibitory activity on binding of monoclonal antibody 5H8 to CS protein (in words) [10]: almost identical

QAQGDGANAGQP-NH2 [Peptide 1-12, NH2 Gln-Ala-Gln-Gly-Asp-Gly-Ala-Asn-Ala-Gly-Gln-ProCONH2]
Reactivity with monoclonal anti-CS (in words) [1]: very efficient inhibitors | Inhibitory activity on binding of monoclonal antibody 2G3 to CS protein (in words) [2]: almost identical; also recorded: strongly inhibitory | Molar concentration of peptide (×5) necessary for 50% inhibition of binding of monoclonal antibody 2G3 ([2]; head prints (×5), radiolabeled 2G3, CS protein P. knowlesi immobilized on wells, 4° C. for 18 hours): 10^-13 Molar | Inhibitory effect on binding of 8E11 to CS protein at a fixed concentration ([5]; at a concentration of 10^-2 M): no appreciable inhibitory effect | Reactivity with monoclonal anti-CS 2G3 (previous work) [6]: very effectively inhibited | Inhibitory activity on binding of monoclonal antibody 8B8 to CS protein (in words) [11]: strongly inhibitory | Inhibitory activity on binding of monoclonal antibody 5H8 to CS protein (in words) [10]: almost identical; also recorded: strongly inhibitory
